Values of other authors in patent US20230279502A1, “IDENTIFICATION OF ESTROGEN RECEPTOR POSITIVE (ER+) BREAST CANCERS THAT WILL NOT DEVELOP TAMOXIFEN RESISTANCE” (Rutgers, The State University of New Jersey, priority 2020, published 2023).

Legend:
[1] = test system: human cancer cell lines; settings: different human cancer cell lines, based on expression levels of the read-out genes; high AUCs = decreased sensitivity
[2] = test system: ER+ breast cancers; settings: ER+ breast cancer patients treated with tamoxifen

SMILES: CC/C(=C(\c1ccccc1)c1ccc(OCCN(C)C)cc1)c1ccccc1 [tamoxifen]
- Sensitivity to tamoxifen treatment (area under the dose-response curve) [1]: decreased sensitivity
- Treated patients that develop therapeutic resistance [2]: ~30%
